Results reported in patent US10703764B2, “Benzopiperazine compositions as BET bromodomain inhibitors” (FORMA Therapeutics, Inc., priority 2013, dated 2020).

Key:
[1] = target: T1, BRD4 BD1 (Homo sapiens, UniProt O60885); assay: AlphaScreen binding assay, BRD4 Bromodomain 1
T1 construct: made in house
How it was run: (§1)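 Compound dilution series were mixed with His-tagged BRD4 bromodomain and biotinylated tetra-acetylated H4 (1-21) peptide at pH 7.3 (BD1 and peptide at 50 nM, BD2 and peptide at 100 nM). Donor and acceptor beads were then added, and plates were equilibrated at least 1 h before reading. IC50 values were fitted with a four-parameter logistic model.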

[2] = target: T2, BRD4 BD2 (Homo sapiens, UniProt O60885); assay: AlphaScreen binding assay, BRD4 Bromodomain 2
T2 construct: made in house
How it was run: as §1

[3] = tested on: MV4-11 cells; assay: Oncology cell growth assay (3-day proliferation, CellTiter-Glo); assay type: cell-based; conditions: Homo sapiens, MV4-11, 72 h, AML cell line MV4-11, 72 hours, compounds grouped by IC50 range, read-out: MV4-11 IC50 (inhibition of proliferation, gIC50)
How it was run: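 Compounds were serially diluted 3-fold in DMSO, giving final well concentrations from 10 down to 0.0045 μM. MV4-11 cells were then seeded at 3000 cells/well in RPMI 1640 with 10% FBS and incubated 72 hours. CellTiter-Glo signal was measured and gIC50 obtained by four-parameter logistic regression.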

| SMILES | IC50 [1] | IC50 [2] | IC50 [3] |
| --- | --- | --- | --- |
| CC(=O)N1c2ccc(-c3ccc4c(c3)CCCN4S(C)(=O)=O)cc2N(C(=O)C2CC2)C[C@@H]1C [Example I-1157] | 100 to 1000 nM | < 50 nM | 100 to 500 nM |
| CC(=O)N1c2ccc(-c3ccc4c(c3)CCCN4S(C)(=O)=O)cc2N(C(=O)C2CCC2)C[C@@H]1C [Example I-1158] | 100 to 1000 nM | 50 to 500 nM | > 500 nM |
| CCOC(=O)N1C[C@H](C)N(C(C)=O)c2ccc(-c3ccc4c(c3)CCCN4S(C)(=O)=O)cc21 [Example I-1159] | 100 to 1000 nM | 50 to 500 nM | 100 to 500 nM |
| CC(=O)N1c2ccc(-c3ccc4c(c3)CCCN4S(C)(=O)=O)cc2N(C(=O)OC(C)C)C[C@@H]1C [Example I-1160] | 100 to 1000 nM | 50 to 500 nM | 100 to 500 nM |
| CC(=O)N1c2ccc(-c3cccc(N4CCCS4(=O)=O)c3)cc2N(C(=O)C2CCC2)C[C@@H]1C [Example I-1161] | 1000 to 10000 nM | 50 to 500 nM | > 500 nM |
| CCOC(=O)N1C[C@H](C)N(C(C)=O)c2ccc(-c3cccc(N4CCCS4(=O)=O)c3)cc21 [Example I-1162] | 100 to 1000 nM | 50 to 500 nM | > 500 nM |
| CCOC(=O)N1C[C@H](C)N(C(C)=O)c2ccc(-c3cc(N4CCCS4(=O)=O)cc(C(F)(F)F)c3)cc21 [Example I-1165] | 1000 to 10000 nM | 50 to 500 nM | > 500 nM |
| CC(=O)N1c2ccc(-c3cc(N4CCCS4(=O)=O)cc(C(F)(F)F)c3)cc2N(C(=O)OC(C)C)C[C@@H]1C [Example I-1166] | 100 to 1000 nM | 50 to 500 nM | > 500 nM |
| COc1ccc(-c2ccc3c(c2)N(C(=O)C2CC2)C[C@H](C)N3C(C)=O)cc1N1CCCS1(=O)=O [Example I-1167] | 100 to 1000 nM | 50 to 500 nM | 100 to 500 nM |
| COc1ccc(-c2ccc3c(c2)N(C(=O)C2CCC2)C[C@H](C)N3C(C)=O)cc1N1CCCS1(=O)=O [Example I-1168] | 100 to 1000 nM | 50 to 500 nM | 100 to 500 nM |
| CCOC(=O)N1C[C@H](C)N(C(C)=O)c2ccc(-c3ccc(OC)c(N4CCCS4(=O)=O)c3)cc21 [Example I-1169] | 100 to 1000 nM | 50 to 500 nM | 100 to 500 nM |
| COc1ccc(-c2ccc3c(c2)N(C(=O)OC(C)C)C[C@H](C)N3C(C)=O)cc1N1CCCS1(=O)=O [Example I-1170] | 100 to 1000 nM | 50 to 500 nM | 100 to 500 nM |
| CC(=O)N1c2ccc(-c3ccc(NS(C)(=O)=O)c(C)c3)cc2N(C(=O)C2CC2)C[C@@H]1C [Example I-1171] | 100 to 1000 nM | 50 to 500 nM | 100 to 500 nM |
| CC(=O)N1c2ccc(-c3ccc(NS(C)(=O)=O)c(C)c3)cc2N(C(=O)C2CCC2)C[C@@H]1C [Example I-1172] | 100 to 1000 nM | 50 to 500 nM | 100 to 500 nM |
| CCOC(=O)N1C[C@H](C)N(C(C)=O)c2ccc(-c3ccc(NS(C)(=O)=O)c(C)c3)cc21 [Example I-1173] | 100 to 1000 nM | 50 to 500 nM | 100 to 500 nM |
| CC(=O)N1c2ccc(-c3ccc(NS(C)(=O)=O)c(C)c3)cc2N(C(=O)OC(C)C)C[C@@H]1C [Example I-1174] | 100 to 1000 nM | 50 to 500 nM | 100 to 500 nM |
| CC(=O)N1c2ccc(-c3ccc4c(c3)N(C)S(=O)(=O)N4)cc2N(C(=O)C2CC2)C[C@@H]1C [Example I-1175] | 100 to 1000 nM | 50 to 500 nM | > 500 nM |
| CC(=O)N1c2ccc(-c3ccc4c(c3)N(C)S(=O)(=O)N4)cc2N(C(=O)C2CCC2)C[C@@H]1C [Example I-1176] | 100 to 1000 nM | < 50 nM | > 500 nM |
| CC(=O)N1c2ccc(-c3ccc4c(c3)N(C)S(=O)(=O)N4)cc2N(C(=O)OC(C)C)C[C@@H]1C [Example I-1177] | 100 to 1000 nM | 50 to 500 nM | > 500 nM |
| CC(=O)N1c2ccc(-c3ccc4c(c3)CS(=O)(=O)N4)cc2N(C(=O)C2CC2)C[C@@H]1C [Example I-1178] | 100 to 1000 nM | 50 to 500 nM | > 500 nM |
| CC(=O)N1c2ccc(-c3ccc4c(c3)CS(=O)(=O)N4)cc2N(C(=O)OC(C)C)C[C@@H]1C [Example I-1179] | 100 to 1000 nM | 50 to 500 nM | 100 to 500 nM |
| CC(=O)N1c2ccc(-c3ccc(NS(C)(=O)=O)c(F)c3)cc2N(C(=O)C2CC2)C[C@@H]1C [Example I-1180] | 100 to 1000 nM | 50 to 500 nM | > 500 nM |
| CC(=O)N1c2ccc(-c3ccc(NS(C)(=O)=O)c(F)c3)cc2N(C(=O)C2CCC2)C[C@@H]1C [Example I-1181] | 1000 to 10000 nM | 50 to 500 nM | > 500 nM |

Second part, the compound after the results:

| IC50 [1] | IC50 [2] | IC50 [3] | SMILES |
| --- | --- | --- | --- |
| 100 to 1000 nM | 50 to 500 nM | > 500 nM | CCOC(=O)N1C[C@H](C)N(C(C)=O)c2ccc(-c3ccc(NS(C)(=O)=O)c(F)c3)cc21 [Example I-1182] |
| 100 to 1000 nM | < 50 nM | 100 to 500 nM | CC(=O)N1c2ccc(-c3ccc(NS(C)(=O)=O)c(F)c3)cc2N(C(=O)OC(C)C)C[C@@H]1C [Example I-1183] |
| 100 to 1000 nM | 50 to 500 nM | 100 to 500 nM | CC(=O)N1c2ccc(-c3ccc4c(c3)N(S(C)(=O)=O)CCC4)cc2N(C(=O)C2CC2)C[C@@H]1C [Example I-1184] |
| 100 to 1000 nM | 50 to 500 nM | 100 to 500 nM | CC(=O)N1c2ccc(-c3ccc4c(c3)N(S(C)(=O)=O)CCC4)cc2N(C(=O)OC(C)C)C[C@@H]1C [Example I-1185] |
| 100 to 1000 nM | < 50 nM | 100 to 500 nM | COc1cc(F)ccc1OC(=O)N1C[C@H](C)N(C(C)=O)c2ccc(-c3cnn(C4CC4)c3)cc21 [Example I-1186] |
| 100 to 1000 nM | < 50 nM | > 500 nM | CC(=O)N1c2ccc(-c3cnn(C4CC4)c3)cc2N(C(=O)Oc2cncc(Cl)c2)C[C@@H]1C [Example I-1187] |
| 100 to 1000 nM | 50 to 500 nM | 100 to 500 nM | CC(=O)N1c2ccc(-c3cnn(C4CC4)c3)cc2N(C(=O)Oc2cncc(F)c2)C[C@@H]1C [Example I-1189] |
| 100 to 1000 nM | 50 to 500 nM | > 500 nM | CC(=O)N1c2ccc(-c3cnn(C4CC4)c3)cc2N(C(=O)Oc2ccc(C)nc2C)C[C@@H]1C [Example I-1190] |
| 100 to 1000 nM | < 50 nM | 100 to 500 nM | CC(=O)N1c2ccc(-c3cnn(C4CC4)c3)cc2N(C(=O)Oc2cccc3ncccc23)C[C@@H]1C [Example I-1191] |
| 100 to 1000 nM | < 50 nM | < 100 nM | CC(=O)N1c2ccc(-c3cnn(C4CC4)c3)cc2N(C(=O)Oc2ccc3cnccc3c2)C[C@@H]1C [Example I-1192] |
| 100 to 1000 nM | 50 to 500 nM | 100 to 500 nM | CC(=O)N1c2ccc(-c3cnn(C4CC4)c3)cc2N(C(=O)Oc2ccc(-n3cncn3)cc2)C[C@@H]1C [Example I-1194] |
| 100 to 1000 nM | < 50 nM | < 100 nM | CC(=O)N1c2ccc(-c3cnn(C4CC4)c3)cc2N(C(=O)Oc2cccc3cccnc23)C[C@@H]1C [Example I-1195] |
| 100 to 1000 nM | 50 to 500 nM | 100 to 500 nM | CC(=O)N1c2ccc(-c3cnn(C4CC4)c3)cc2N(C(=O)Oc2ccc(Cl)c3cccnc23)C[C@@H]1C [Example I-1196] |
| 100 to 1000 nM | 50 to 500 nM | 100 to 500 nM | CC(=O)N1c2ccc(-c3cnn(C4CC4)c3)cc2N(C(=O)Oc2cc(C)ccc2F)C[C@@H]1C [Example I-1198] |
| 100 to 1000 nM | 50 to 500 nM | 100 to 500 nM | COc1ccc(OC(=O)N2C[C@H](C)N(C(C)=O)c3ccc(-c4cnn(C5CC5)c4)cc32)cn1 [Example I-1199] |
| 100 to 1000 nM | < 50 nM | 100 to 500 nM | COc1ccc(F)cc1OC(=O)N1C[C@H](C)N(C(C)=O)c2ccc(-c3cnn(C4CC4)c3)cc21 [Example I-1201] |
| 100 to 1000 nM | 50 to 500 nM | 100 to 500 nM | CC(=O)N1c2ccc(-c3cnn(C4CC4)c3)cc2N(C(=O)Oc2ccc3cccnc3c2)C[C@@H]1C [Example I-1202] |
| 100 to 1000 nM | < 50 nM | < 100 nM | CC(=O)N1c2ccc(-c3cnn(C4CC4)c3)cc2N(C(=O)Oc2cccc3nccnc23)C[C@@H]1C [Example I-1204] |
| 100 to 1000 nM | < 50 nM | 100 to 500 nM | CC(=O)N1c2ccc(-c3cnn(C4CC4)c3)cc2N(C(=O)Oc2ccc3c(c2)ncn3C)C[C@@H]1C [Example I-1205] |
| 100 to 1000 nM | < 50 nM | 100 to 500 nM | CC(=O)N1c2ccc(-c3cnn(C4CC4)c3)cc2N(C(=O)Oc2ccc3ccncc3c2)C[C@@H]1C [Example I-1206] |
| 100 to 1000 nM | 50 to 500 nM | > 500 nM | COc1ncc(Cl)cc1OC(=O)N1C[C@H](C)N(C(C)=O)c2ccc(-c3cnn(C4CC4)c3)cc21 [Example I-1207] |
| > 10000 nM | 50 to 500 nM | > 500 nM | CC(=O)N1c2ccc(-c3cnn(CCO)c3)cc2N(C(=O)N(C)C(C)C)C[C@@H]1C [Example I-1211] |
| > 10000 nM | > 500 nM | > 500 nM | CC(=O)N1c2ccc(-c3cnn(CCO)c3)cc2N(C(=O)N(C)c2ccccc2)C[C@@H]1C [Example I-1212] |
| 100 to 1000 nM | 50 to 500 nM | 100 to 500 nM | CCS(=O)(=O)c1ccc(-c2ccc3c(c2)N(C(=O)OC2CCOCC2)C[C@H](C)N3C(C)=O)cc1 [Example I-1214] |
| 100 to 1000 nM | 50 to 500 nM | 100 to 500 nM | CC(=O)N1c2ccc(-c3ccc(S(=O)(=O)C4CC4)cc3)cc2N(C(=O)OC2CCCCC2)C[C@@H]1C [Example I-1215] |
